In patent US20100255054A1, “PHARMACEUTICAL COMPOSITION FOR TREATMENT AND PREVENTION OF RESTENOSIS” (priority 2006, published 2010):

Columns and labels:
[1] = test system: vascular smooth muscle cells; test: Vascular smooth muscle cell proliferation (PDGF-induced, WST cell counting kit); assay type: cell-based, rat
Description: For vascular smooth muscle cell cultivation, vascular smooth muscle cells were isolated from rat aorta and they were primarily cultured. The vascular smooth muscle cells were cultured and grown in a culture solution containing 20% fetal bovine serum (FBS) at 37° C. under 5% CO2. The cells obtained in this process were transferred to a new culture plate for experiments. The cells used in the experiments were initial cells which had been subcultured 4 to 7 times. In order to activate NQO1, the vascular smooth muscle cells, when the cell mass reached 80 to 90%, were cultured in a medium containing 0.5% fetal bovine serum for 24 hours to keep the cells in the resting state. […]
Primary cultures of vascular smooth muscle cells were seeded onto 96-well plates, cultured to reach cell mass of 70%, and transferred and again cultured in a medium containing 0.5% fetal bovine serum for 24 hours. […] After further reacting for 4 hours, absorbencies were measured at 450 nm using an ELISA reader to examine the cell proliferation rate.
In order to determine the effects of Compound 1 on vascular smooth muscle cell proliferation, the cells cultured in a 96-well plate were kept in the resting state, followed by pre-treating them with Compound 1 by varying the concentration, and by reacting them with PDGF for 48 hours. The number of living cells was counted using a WST cell counting kit. […]

NQO1 = test: RT-PCR of NQO1 expression in vascular smooth muscle cells; assay type: cell-based, rat; settings: 0.5 μM, compared with the control group, FIG. 2
Description: A study was conducted to investigate effects of Compound 1 on the expression of NQ01 as in the following. Primary cultures of vascular smooth muscle cells were kept in the resting state and then treated with 0.5 μM of Compound 1. After reacting them for a predetermined period of time, RNA was extracted from the cells using trizol. Thereafter, DNA was amplified using NQO1 primer and then subjected to electrophoresis to confirm the expression level of NQO1.

AMPK = test: Western blot of phosphorylated AMPK in vascular smooth muscle cells; assay type: cell-based, rat; settings: 0.5 μM
Description: (§1) For vascular smooth muscle cell cultivation, vascular smooth muscle cells were isolated from rat aorta and they were primarily cultured. The vascular smooth muscle cells were cultured and grown in a culture solution containing 20% fetal bovine serum (FBS) at 37° C. under 5% CO2. The cells obtained in this process were transferred to a new culture plate for experiments. The cells used in the experiments were initial cells which had been subcultured 4 to 7 times. In order to activate NQO1, the vascular smooth muscle cells, when the cell mass reached 80 to 90%, were cultured in a medium containing 0.5% fetal bovine serum for 24 hours to keep the cells in the resting state. Such cells were treated with the compound of Example 1 (hereinafter, referred to as Compound 1).
The vascular smooth muscle cells collected after reacting with Compound 1 were lysed in RIPA buffer (50 mM Tris-HCl, 150 mM NaCl, 5 mM EDTA, 1% NP-40, 1 mM PMSF, 1 mM […], and 1 mg/ml protease inhibitor) to isolate whole proteins. The isolated proteins of each sample were quantified. 25 μg of the proteins were mixed with a sample buffer and boiled for 5 minutes. The boiled proteins were cooled and subjected to electrophoresis on a sodium dodecyl sulfate polyacrylamide gel, thereby separating the proteins by their sizes. These proteins were again transferred to PVDF membrane and immunoreacted with antibodies against pAMPK, pACC, p53, p21, CDK and pRb to confirm the protein expression. In addition, in order to verify whether an equal amount of protein was used, the proteins were reacted with anti-β-actin.
Primary cultures of vascular smooth muscle cells were kept in the resting state and then treated with 0.5 μM of Compound 1. After reacting them for a predetermined period of time, the cells were collected to perform western blot. Quantification was carried out using antibodies specific for phosphorylated AMPK and Acetyl-CoA carboxylase (ACC), and for β-actin. The results were confirmed through three or more repeating experiments.

[2] = test system: Acetyl-CoA carboxylase (ACC); test: Western blot of phosphorylated ACC in vascular smooth muscle cells; assay type: cell-based, rat; settings: 0.5 μM, compared with the control group, FIG. 3
Description: as §1
The vascular smooth muscle cells collected after reacting with Compound 1 were lysed in RIPA buffer (50 mM Tris-HCl, 150 mM NaCl, 5 mM EDTA, 1% NP-40, 1 mM PMSF, 1 mM […], and 1 mg/ml protease inhibitor) to isolate whole proteins. The isolated proteins of each sample were quantified. 25 μg of the proteins were mixed with a sample buffer and boiled for 5 minutes. […]
Primary cultures of vascular smooth muscle cells were kept in the resting state and then treated with 0.5 μM of Compound 1. […] Quantification was carried out using antibodies specific for phosphorylated AMPK and Acetyl-CoA carboxylase (ACC), and for β-actin. […]

p53 = test: Western blot of p53 expression in vascular smooth muscle cells; assay type: cell-based, rat; settings: 0.5 μM, FIG. 4A
Description: as §1
(§2) The vascular smooth muscle cells collected after reacting with Compound 1 were lysed in RIPA buffer (50 mM Tris-HCl, 150 mM NaCl, 5 mM EDTA, 1% NP-40, 1 mM PMSF, 1 mM […], and 1 mg/ml protease inhibitor) to isolate whole proteins. The isolated proteins of each sample were quantified. 25 μg of the proteins were mixed with a sample buffer and boiled for 5 minutes. The boiled proteins were cooled and subjected to electrophoresis on a sodium dodecyl sulfate polyacrylamide gel, thereby separating the proteins by their sizes. […]

p21 = test: Western blot of p21 expression in vascular smooth muscle cells; assay type: cell-based, rat; settings: 0.5 μM, FIG. 4A
Description: as §1, §2

[3] = test system: cyclin dependent kinase (CDK); test: Western blot of CDK in vascular smooth muscle cells; assay type: cell-based, rat; settings: 0.5 μM, FIG. 4B
Description: as §1, §2

cyclin D = test: Western blot of cyclin D expression in vascular smooth muscle cells; assay type: cell-based, rat; settings: 0.5 μM, compared with the control group, FIG. 4B
Description: as §1, §2

cyclin E = test: Western blot of cyclin E expression in vascular smooth muscle cells; assay type: cell-based, rat; settings: 0.5 μM, compared with the control group, FIG. 4B
Description: as §1, §2

cyclin B = test: Western blot of cyclin B expression in vascular smooth muscle cells; assay type: cell-based, rat; settings: 0.5 μM, compared with the control group, FIG. 4B
Description: as §1, §2

[4] = test system: vascular smooth muscle cells; test: Cell cycle analysis by FACS (PI staining); assay type: cell-based, rat; settings: 0.5 μM Compound 1 + PDGF and insulin, 48 hours (PDGF and insulin only: 57%), FIG. 5C
Description: as §1
FACS was used for cell cycle analysis. The vascular smooth muscle cells incubated in a medium containing 0.5% fetal bovine serum for 24 hours were pretreated with Compound 1 for 2 hours. The cells were treated with PDGF and insulin to induce cell proliferation and reacted for 48 hours. Thereafter, the cells were collected and passed through fixation process, followed by nuclear staining with propidium iodide (PI). Then, the cell cycle was analyzed using FACS.
Primary cultures of vascular smooth muscle cells were treated with 0.5 μM of Compound 1, followed by reacting with PDGF and insulin for 48 hours. […]

SD rats = test: Intimal hyperplasia after balloon angioplasty (H&E staining); assay type: in vivo, rat; settings: 100 mg/kg in diet
Description: SD rats were used for performing balloon angioplasty. Animals were housed in a breeding room maintained at a constant temperature of 22±2° C. and a 12-h light/dark (UD) cycle. The animals were divided into two groups, i.e., a control group with administration of general diet and an experiment group with administration of 100 mg/kg of Compound 1, having 4 animals in each group. The 4 animals in each group were raised in separate cages for each animal for 4 weeks, during which experiments were carried out. The animals were raised for 2 weeks before performing balloon angioplasty and 2 weeks after performing balloon angioplasty while continuing the dietary intake of the general diet and Compound 1 diet. Thereafter, their aortas were isolated to confirm hyoerplasia by means of H&E (hematoxylin and eosin) staining.
14 days after performing balloon angioplasty, the carotid artery was extracted from a rat. After staining the carotid artery by H&E staining, vessel intimal hyperplasia was observed. The results are presented in FIG. 6. a is a control group, b is a vessel intima after performing balloon angioplasty in the general dietary group, c is a vessel intima after performing balloon angioplasty in the 100 mg/kg of Compound 1 administration group, and d is a control group in the 100 mg/kg of Compound 1 administration group, without performing balloon angioplasty.

rats = test: Lipogenesis in vessels (Oil Red O staining of aortic valve and abdominal aorta); assay type: in vivo, rat
Text: The animals were killed to isolate their hearts and abdominal aortas, and they were fixed in 4% formalin, respectively. The fixed heart tissue was immersed in an isotonic sucrose solution, and then stored in a freezer by embedding in an OCT compound. Meanwhile, the fixed abdominal aorta was incised lengthwise and prepared such that the internal vessel was exposed. The frozen heart tissue was sectioned into a thickness of 20 μm and attached onto a coating slide, while the abdominal aorta was immersed in an Oil Red O solution to perform Oil Red O staining, and they were observed.
Rats administered with 25 mg/kg and 50 mg/kg of Compound 1, respectively, for 4 weeks had been killed, and their hearts and abdominal aortas were extracted to prepare frozen sections. The prepared sections were stained with Oil Red O, and a degree of lipid accumulation on the inner vessel wall and aortic valve was compared/observed.
A (upper part of FIG. 7) is an aortic valve and B (bottom part of FIG. 7) is an abdominal aorta. The experiments were repeated three times to confirm the results.

CC1(C)CCC2=C(O1)c1ccccc1C(=O)C2=O [Compound 1, β-lapachone]
concentration dependence of the reduction in the number of vascular smooth muscle cells ([1]; Compound 1 pre-treatment at varying concentration, PDGF 48 hours): concentration-dependent
number of vascular smooth muscle cells (living cells) ([1]; PDGF + Compound 1 compared with PDGF only, 48 hours, FIG. 1): significantly low
expression level of NQO1 (NQO1): significantly higher
time after treatment at which phosphorylated AMPK could be observed (AMPK): 1 h
time for which phosphorylated AMPK lasted (AMPK): 6 h
AMPK phosphorylation (AMPK; compared with the control group, FIG. 3): increased
ACC phosphorylation [2]: decreased
expression level of p53 (p53): did not increase largely
expression of p21 (p21): increased in a great amount
CDK activation [3]: activated through phosphorylation
expression level of cyclin D (cyclin D): significantly low
expression level of cyclin E (cyclin E): significantly low
expression level of cyclin B (cyclin B): significantly low
G1 phase (percentage of cells) [4]: 62%
intima/media ratio (SD rats; 14 days after balloon angioplasty (general dietary group: 2.5)): 1
intimal hyperplasia in the vessel (SD rats; 14 days after balloon angioplasty, FIG. 6 c): low rate of intimal hyperplasia
lipogenesis in aortic valve and abdominal aorta (rats; 25 mg/kg and 50 mg/kg for 4 weeks, Oil Red O, FIG. 7): inhibited
blood flow level in the heart and abdominal aorta (rats; about 50 mg/kg for 4 weeks): approximately the same as that of the normal rats
